From PubChem BioAssay (NCI) come the findings set out here.

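1) Cells in 96-well plates. 2) Compound, 48 h, 5 concentrations. 3) Linear interpolation between surrounding doses. 4) Unreached endpoint = highest concentration. At the TGI there is no net growth.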

Common to all, as to assay: NCI anticancer screen, dose series, 48 h
Assay [1] relates to ACHN renal.
Assay [2] has as its system NCI-H460 lung.
The test system of assay [3] is OVCAR-4 ovarian.
Assay [4] deals with SK-MEL-2 melanoma.
Assay [5] has as its system SNB-19 CNS.
The subject of assay [6] is SNB-75 CNS.
Assay [7] concerns HOP-92 NSCLC.
Assay [8] has as its system IGROV1 ovarian.
In assay [9] the test system is MALME-3M melanoma.

As to `Cc1cc(NCCCCCCCCNc2cc(C)nc3cc(N)ccc23)c2ccc(N)cc2n1`, the TGI in assay [1] is more than 100 µM; in assay [2] it was 49.5 µM; in assay [3] it was more than 100 µM; in [4], 40.4 µM; in [5], 45.4 µM; in assay [6] it was 69.1 µM.

On to `N#CCCN(c1ccc(C=Nc2ccccc2)cc1)S(=O)(=O)c1ccccc1`, for which the TGI in assay [7], in [8], in [9], in assay [3], in assay [4] and in assay [5] was more than 100 µM in each case. For the same molecule, in assay [6], the TGI is more than 100 µM.

Take `Cc1nc(-n2nc(-c3ccccc3)cc2-c2ccccc2)sc1C(=O)/C=C/c1ccc(/C=C/C(=O)c2sc(-n3nc(-c4ccccc4)cc3-c3ccccc3)nc2C)cc1`: the TGI is 40.2 µM in assay [1]; 28.6 µM in assay [8]; 40.2 µM in [9]; 95.7 µM in assay [2]; more than 100 µM in assay [3]; 51.8 µM in assay [4]. Further, the TGI in assay [5] stood at 42 µM.

As to `C[C@@H](NC1CCCC[C@H]1O)c1ccccc1` (some centres not stated), the TGI in [1], in assay [7], in assay [8], in [9], in assay [2] and in assay [3] was more than 100 µM each time. For the same molecule, the TGI in assay [4], in [5] and in assay [6] was more than 100 µM in each case.

For `O=C(NCCCCCCCCCCCCNC(=O)c1cccc2ccccc12)c1cccc2ccccc12`, the TGI in assay [1] was more than 100 µM; in [7], more than 72.1 µM; in assay [8] it was more than 100 µM; in assay [9] it was more than 100 µM; in assay [2] it was more than 100 µM; in assay [3], 20.5 µM. For the same molecule, the TGI is more than 100 µM in [4], more than 73.6 µM in assay [5] and more than 54.6 µM in [6].

With `CN1c2ccccc2N(C(=O)c2ccc([N+](=O)[O-])cc2)C(CC(=O)O)c2cccn21` (configuration not stated), the TGI in [1], in assay [7], in [8], in assay [9], in [2] and in [3] was more than 100 µM throughout. The TGI in [4], in [5] and in assay [6] was more than 100 µM each time.

On to `Cn1cc(C(=O)c2ccccc2)c2ccccc2c1=O`, for which the TGI in [1], in assay [7], in assay [8], in assay [9], in [2] and in [3] was more than 100 µM in each case. For the same molecule, the TGI in assay [4] and in assay [6] was more than 100 µM each time.

Take `Nc1ncnc2c1ncn2[C@]1(CO)C=C(CO)C(O)C1O` (some centres not stated): the TGI in assay [1], in [7], in assay [9], in assay [2], in assay [3] and in assay [4] was more than 100 µM in each case. Also, the TGI in assay [5] and in [6] was more than 100 µM in each case.

As for `O=C(N/C(=C\c1ccc(Cl)cc1)c1nc2ccccc2[nH]1)c1ccccc1`, the TGI in [1] was 80.5 µM; in assay [7], 33.6 µM; in assay [8], 60 µM; in assay [9], more than 100 µM; in assay [2], 49.7 µM; in assay [3], 37.9 µM. The values for the TGI in [4], in assay [5] and in assay [6] were 42.2 µM, 88 µM and 47.2 µM, respectively.

For the molecule `COc1ccc(C/C(=N/O)C(=O)NCCc2cc(Br)c(OCCCN(C)C)c(Br)c2)cc1Br`, the TGI came out at 30 µM in [1]; 44.6 µM in assay [9]; 33.4 µM in assay [2]; 38.8 µM in [3]; 37.4 µM in assay [4]; 32.6 µM in assay [5]. Besides, in assay [6], the TGI is 55 µM.

Take `N#Cc1c(-c2ccc(Cl)c(Cl)c2)c(-c2ccc(Cl)c(Cl)c2)nn(CC(=O)O)c1=O`: the TGI in assay [1], in assay [7], in assay [8], in assay [9], in assay [2] and in assay [3] was more than 100 µM throughout. Also, the TGI in [4] and in assay [6] was more than 100 µM in each case.

Turning to `O=C(/C=C/c1cc(Cl)cc(Cl)c1O)c1cccc(O)c1`, the TGI in [1] is more than 100 µM; in assay [7] it was 84.9 µM; in assay [8], more than 100 µM; in assay [9] it was 87.3 µM; in assay [2], more than 100 µM; in assay [3] it was more than 100 µM. Also, the figures for the TGI in assay [4], in assay [5] and in assay [6] were 61.7 µM, more than 100 µM and 94.4 µM, respectively.

Turning to `COC(=O)C(C(=O)C(=O)Nc1c(C)cccc1C)c1cnc2ccccc2n1` (configuration not stated), the TGI in [1], in assay [7], in [8], in assay [9], in [2] and in assay [3] was more than 100 µM each time. The TGI in [4], in [5] and in assay [6] was more than 100 µM each time.

Regarding `CN(C)C=Nc1ccn(CCO)c(=O)n1`, the TGI in [1], in assay [8], in [9], in [2], in assay [3] and in assay [4] was more than 100 µM throughout. For the same molecule, the TGI in assay [5] and in [6] was more than 100 µM in each case.

Turning to `Cc1cn(C2CC(O)C(COC(=O)c3ccccc3)O2)c(=O)[nH]c1=O` (configuration not stated), the TGI in assay [1], in assay [7], in [8], in assay [9], in [2] and in assay [3] was more than 100 µM in each case. The molecule further gave a TGI in assay [5] of more than 100 µM.

On to `COc1ccc(NC(=O)C(=O)c2c(O)c3ccc(O)cc3oc2=O)c([N+](=O)[O-])c1`, for which the TGI in [1], in assay [7], in assay [8], in assay [9], in [2] and in [3] was more than 100 µM in each case. For the same molecule, the TGI in [4], in assay [5] and in [6] was more than 100 µM each time.

Turning to `CCCCCN(CCCCC)C(=O)[C@@H](CCC(=O)O)NC(=O)c1cc2ccccc2[nH]1`, the TGI was more than 100 µM in assay [1]; 67.8 µM in [7]; more than 100 µM in assay [8]; more than 100 µM in assay [9]; more than 100 µM in [2]; more than 100 µM in [3]. Also, the TGI in assay [4] was 62.2 µM; in assay [5] it was more than 100 µM; in [6], 61.8 µM.

Turning to `CC(C)(O)[C@@H]1CC[C@@]2(C)CCCC(O)C2(O)C1` (some centres not stated), the TGI in assay [1], in assay [7], in [8], in assay [9], in [2] and in assay [3] was more than 100 µM in each case. For the same molecule, the TGI in [4], in assay [5] and in assay [6] was more than 100 µM in each case.

In the case of `Cc1c(Cl)cccc1NC(=O)C(=O)C(C(=O)c1ccccc1-c1ccccc1)C1OC(=O)c2ccccc21` (configuration not stated), the TGI in assay [7] was 34.4 µM; in [8], more than 100 µM; in assay [9], 28.8 µM; in [2], 76.3 µM; in assay [4], 32.6 µM; in [6], 42.1 µM.

`C/C(=C1/N=C(c2cc([N+](=O)[O-])ccc2Cl)N(c2cccc(C)c2)C1=O)c1cc2ccccc2oc1=O`: the TGI in assay [1], in assay [7], in assay [8], in assay [9], in assay [2] and in [4] was more than 100 µM throughout. Moreover, the TGI in assay [5] and in assay [6] was more than 100 µM in each case.

Turning to `COC(=O)C(Cc1cc(OC)c(OC)c(OC)c1)C(=O)OC`, the TGI in assay [1], in assay [7], in [8], in assay [9], in assay [2] and in assay [4] was more than 320 µM in each case.

Consider `Cn1c2c(c3ccccc31)CCN(CCCCN1CCCCC1)C2=O`, for which the TGI in assay [1], in [7], in assay [8], in [2], in assay [3] and in assay [4] was more than 100 µM each time. The same molecule showed a TGI in assay [5] of more than 100 µM.

On to `CN(CCN1C(=O)c2cc([N+](=O)[O-])cc3cc([N+](=O)[O-])cc(c23)C1=O)CCN1C(=O)c2cc([N+](=O)[O-])cc3cc([N+](=O)[O-])cc(c23)C1=O`, for which the TGI in [1] is more than 100 µM; in assay [7], 2.2 µM; in assay [8] it was 5.51 µM; in [9], 4.31 µM; in assay [3], more than 100 µM; in assay [4] it was 5.21 µM. Also, the TGI in [5] and in assay [6] was more than 100 µM in each case.
